Measurements taken from PMC7558026, “Exploring and applying the substrate promiscuity of a C-glycosyltransferase in the chemo-enzymatic synthesis of bioactive C-glycosides” (Nature Communications, 2020).
Numbering of substitutions follows the chain as printed. Several values for one entry are separate records, joined by “and”; a condition that tells them apart may be missing. Equal entries are not always repeated.

Legend:
Type in all cases: biochemical, Aloe barbadensis
AbCGT = AbCGT (Aloe vera, UniProt A0A7G9P699); test: Glycosyltransferase activity assay, purified AbCGT (wild type) with aglycon acceptors and UDP-Glc; settings: for conversion rates, O,N,S-glycosylation / conversion rates, di-C-glycosylation / conversion rates, mono-C-glycosylation: aglycon acceptor with UDP-Glc, pH 7.4, 30 °C, up to 12 h, Reaction-1 to -3
Description: Due to the instability of some acceptors in the buffer of pH 11.0, the reactions were performed under the physiological conditions (pH 7.4, 30 °C) to compare the catalytic activities of AbGT27 with different substrates under the same conditions. The reactions were performed at 30 °C for up to 12 h and terminated by the addition of 200 μL of ice-cold methanol. Subsequently, samples were centrifuged at 15,000 × g for 30 min to collect the supernatant, and aliquots were analyzed by HPLC-UV/ESIMS. […] The gradient programs were used for the analysis of the reactions (Supplementary Table 6). The conversion rates of the enzyme reactions were calculated from peak areas of glycosylated products and substrates as analyzed by HPLC. To facilitate inferential statistical analysis, three parallel assays were routinely performed; the means ± SD from triplicate analyses are reported here.

AbCGT V183D = biological target: T1, AbCGT V183D (Aloe vera, UniProt A0A7G9P699, V183D); test: Glycosyltransferase activity of AbCGT variant V183D
T1 sequence (A0A7G9P699 1-470 V183D): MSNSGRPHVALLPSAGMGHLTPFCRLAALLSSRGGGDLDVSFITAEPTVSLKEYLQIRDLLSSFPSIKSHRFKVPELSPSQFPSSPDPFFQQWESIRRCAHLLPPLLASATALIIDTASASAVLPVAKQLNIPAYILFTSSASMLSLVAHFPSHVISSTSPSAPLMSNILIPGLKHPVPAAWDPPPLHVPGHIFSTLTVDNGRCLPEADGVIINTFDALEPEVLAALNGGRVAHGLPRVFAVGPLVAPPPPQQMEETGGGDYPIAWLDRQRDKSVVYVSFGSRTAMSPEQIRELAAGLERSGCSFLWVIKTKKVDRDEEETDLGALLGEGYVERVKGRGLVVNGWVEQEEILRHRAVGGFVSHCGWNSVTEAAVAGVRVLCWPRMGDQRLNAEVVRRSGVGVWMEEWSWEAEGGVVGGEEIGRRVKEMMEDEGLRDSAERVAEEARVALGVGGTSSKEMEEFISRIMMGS
Description: (§1) The reaction mixture contained 0.5 mM sugar donors (1.0 mM for di-glycosylation), 0.25 mM aglycons, 50 mM Tris-HCl (pH 7.4), and 50‒100 μg of purified AbCGT in a final volume of 100 μL. Due to the instability of some acceptors in the buffer of pH 11.0, the reactions were performed under the physiological conditions (pH 7.4, 30 °C) to compare the catalytic activities of AbGT27 with different substrates under the same conditions. The reactions were performed at 30 °C for up to 12 h and terminated by the addition of 200 μL of ice-cold methanol. Subsequently, samples were centrifuged at 15,000 × g for 30 min to collect the supernatant, and aliquots were analyzed by HPLC-UV/ESIMS. HPLC analysis was performed on a Shiseido CAPCELL PAK C18 MG III column (250 mm × 4.6 mm I.D., 5 μm, Shiseido Co., Ltd., Japan) at a flow rate of 1 mL min^‒1. The mobile phase was a gradient elution of solvents A (0.1% formic acid aqueous solution) and B (methanol). The gradient programs were used for the analysis of the reactions (Supplementary Table 6). The conversion rates of the enzyme reactions were calculated from peak areas of glycosylated products and substrates as analyzed by HPLC. To facilitate inferential statistical analysis, three parallel assays were routinely performed; the means ± SD from triplicate analyses are reported here.
(§2) Site-saturation mutagenesis of AbCGT at residue 183 was performed by PCR using pET28a-AbCGT as a template and the corresponding degenerate primers, which are listed in Supplementary Table 5. PCR products were purified and transformed into Trans1-T1 (DE3) E. coli. The sequences of pET28a-AbCGT mutants were confirmed by sequencing, and transformed into Transetta (DE3) E. coli for heterologous expression following protein purification.

AbCGT V183E = biological target: T2, AbCGT V183E (Aloe vera, UniProt A0A7G9P699, V183E); test: Glycosyltransferase activity of AbCGT variant V183E
T2 sequence (A0A7G9P699 1-470 V183E): T1 sequence (A0A7G9P699 1-470 V183D) with D183E
Description: as §1, §2

Chain of AbCGT (A0A7G9P699 entry or part of it): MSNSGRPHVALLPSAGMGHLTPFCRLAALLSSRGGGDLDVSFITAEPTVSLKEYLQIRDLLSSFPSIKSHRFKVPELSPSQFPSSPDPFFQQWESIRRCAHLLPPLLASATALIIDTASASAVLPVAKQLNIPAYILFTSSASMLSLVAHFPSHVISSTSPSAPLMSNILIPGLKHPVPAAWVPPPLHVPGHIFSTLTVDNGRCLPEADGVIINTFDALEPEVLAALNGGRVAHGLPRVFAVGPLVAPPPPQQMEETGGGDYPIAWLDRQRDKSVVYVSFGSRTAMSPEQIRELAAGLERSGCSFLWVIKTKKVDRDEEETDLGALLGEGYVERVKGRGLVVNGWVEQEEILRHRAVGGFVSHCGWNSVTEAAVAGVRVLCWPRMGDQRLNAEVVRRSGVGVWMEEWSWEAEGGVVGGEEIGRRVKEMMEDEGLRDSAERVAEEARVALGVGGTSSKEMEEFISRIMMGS

Compound | conversion rates, O,N,S-glycosylation (AbCGT) | conversion rates, di-C-glycosylation (AbCGT) [%] | conversion rates, mono-C-glycosylation (AbCGT) | WT/yield of C-glycoside(%) (AbCGT; reaction-1) | WT/yield of O-glycoside(%) (AbCGT; reaction-1) | WT/yield of C-glycoside(%) (AbCGT; reaction-2) | WT/yield of O-glycoside(%) (AbCGT; reaction-2) | WT/yield of C-glycoside(%) (AbCGT; reaction-3) | WT/yield of O-glycoside(%) (AbCGT; reaction-3) | V183D/yield of C-glycoside(%) (AbCGT V183D; reaction-1) | V183D/yield of O-glycoside(%) (AbCGT V183D; reaction-1) | V183D/yield of C-glycoside(%) (AbCGT V183D; reaction-2) | V183D/yield of O-glycoside(%) (AbCGT V183D; reaction-2) | V183D/yield of C-glycoside(%) (AbCGT V183D; reaction-3) | V183D/yield of O-glycoside(%) (AbCGT V183D; reaction-3) | V183E/yield of C-glycoside(%) (AbCGT V183E; reaction-1) | V183E/yield of O-glycoside(%) (AbCGT V183E; reaction-1) | V183E/yield of C-glycoside(%) (AbCGT V183E; reaction-2) | V183E/yield of O-glycoside(%) (AbCGT V183E; reaction-2) | V183E/yield of C-glycoside(%) (AbCGT V183E; reaction-3) | also measured
COc1cc(O)c(C(C)=O)c(OC)c1 [Compound 14] | 2% and 1.9% | 0 | 0% | 0 | 1.5 | 0 | 1.6 | 0 | 2.8 | 0 | 0 | 0 | 0 | 0 | 0 | 8 | 0 | 7.9 | 0 | 7.5 | V183E/yield of O-glycoside(%) (AbCGT V183E; reaction-3): 0%
CC(=O)c1cccc(O)c1 [Compound 2] | 71% and 72.2% and 73.1% | 0 | 0% | 0 | 70.1 | 0 | 73.8 | 0 | 73 | 0 | 0 | 0 | 0 | 0 | 0 | 0 | 0 | 0 | 0 | 0 | V183E/yield of O-glycoside(%) (AbCGT V183E; reaction-3): 0%
CC(=O)c1c(O)cc(C)cc1O [Compound 7] | 77% and 78.6% and 82.4% | 0 | 13.9% and 12% and 15.9% | 15.2 | 77.6 | 14.1 | 78 | 13.5 | 81.4 | 8 | 0.8 | 7.2 | 1 | 7.2 | 1.3 | 11.1 | 0 | 8.9 | 0 | 13.1 | V183E/yield of O-glycoside(%) (AbCGT V183E; reaction-3): 0%
COc1cc(O)c(C(C)=O)c(O)c1 [Compound 13] | 20.7% and 23.5% and 25.6% | 0 | 66.9% and 65.9% and 68.6% | 70.5 | 21.2 | 65 | 22.7 | 68.1 | 25.9 | 6.8 | 0 | 7.3 | 0 | 7 | 0 | 5.7 | 0.8 | 4.1 | 2 | 6 | V183E/yield of O-glycoside(%) (AbCGT V183E; reaction-3): 1.1%
Oc1cc(O)cc(OCCCCCCc2ccccc2)c1 [Compound 22] | 33% and 31.4% and 25.1% | 0 | 8.5% and 9.9% and 11.3% | 9.6 | 28.2 | 11 | 26.9 | 9.5 | 34.6 | 0 | 0 | 0 | 0 | 0 | 0 | 0 | 0 | 0 | 0 | 0 | V183E/yield of O-glycoside(%) (AbCGT V183E; reaction-3): 0%
CC(=O)c1ccc(O)cc1 [Compound 3] | 70.3% and 72% and 73% | 0 | 0% | 0 | 70.4 | 0 | 71.9 | 0 | 71 | 0 | 0 | 0 | 0 | 0 | 0 | 0 | 0 | 0 | 0 | 0 | V183E/yield of O-glycoside(%) (AbCGT V183E; reaction-3): 0%
CC(=O)c1cc(O)cc(O)c1 [Compound 4, 3,5-dihydroxyacetophenone] | 32.6% and 34.9% and 33.8% | 0 | 0% | 1 | 38.8 | 0.8 | 32.4 | 1.3 | 32.9 | 0 | 0 | 0 | 0 | 0 | 0 | 0 | 0 | 0 | 0 | 0 | V183E/yield of O-glycoside(%) (AbCGT V183E; reaction-3): 0%
